How the values were obtained:
[1] = target: T1, Mitogen-activated protein kinase kinase kinase 5 (Homo sapiens, UniProt Q99683); assay: Inhibition of ASK1 by fluorescence correlation spectroscopy
T1 sequence (Q99683 whole entry): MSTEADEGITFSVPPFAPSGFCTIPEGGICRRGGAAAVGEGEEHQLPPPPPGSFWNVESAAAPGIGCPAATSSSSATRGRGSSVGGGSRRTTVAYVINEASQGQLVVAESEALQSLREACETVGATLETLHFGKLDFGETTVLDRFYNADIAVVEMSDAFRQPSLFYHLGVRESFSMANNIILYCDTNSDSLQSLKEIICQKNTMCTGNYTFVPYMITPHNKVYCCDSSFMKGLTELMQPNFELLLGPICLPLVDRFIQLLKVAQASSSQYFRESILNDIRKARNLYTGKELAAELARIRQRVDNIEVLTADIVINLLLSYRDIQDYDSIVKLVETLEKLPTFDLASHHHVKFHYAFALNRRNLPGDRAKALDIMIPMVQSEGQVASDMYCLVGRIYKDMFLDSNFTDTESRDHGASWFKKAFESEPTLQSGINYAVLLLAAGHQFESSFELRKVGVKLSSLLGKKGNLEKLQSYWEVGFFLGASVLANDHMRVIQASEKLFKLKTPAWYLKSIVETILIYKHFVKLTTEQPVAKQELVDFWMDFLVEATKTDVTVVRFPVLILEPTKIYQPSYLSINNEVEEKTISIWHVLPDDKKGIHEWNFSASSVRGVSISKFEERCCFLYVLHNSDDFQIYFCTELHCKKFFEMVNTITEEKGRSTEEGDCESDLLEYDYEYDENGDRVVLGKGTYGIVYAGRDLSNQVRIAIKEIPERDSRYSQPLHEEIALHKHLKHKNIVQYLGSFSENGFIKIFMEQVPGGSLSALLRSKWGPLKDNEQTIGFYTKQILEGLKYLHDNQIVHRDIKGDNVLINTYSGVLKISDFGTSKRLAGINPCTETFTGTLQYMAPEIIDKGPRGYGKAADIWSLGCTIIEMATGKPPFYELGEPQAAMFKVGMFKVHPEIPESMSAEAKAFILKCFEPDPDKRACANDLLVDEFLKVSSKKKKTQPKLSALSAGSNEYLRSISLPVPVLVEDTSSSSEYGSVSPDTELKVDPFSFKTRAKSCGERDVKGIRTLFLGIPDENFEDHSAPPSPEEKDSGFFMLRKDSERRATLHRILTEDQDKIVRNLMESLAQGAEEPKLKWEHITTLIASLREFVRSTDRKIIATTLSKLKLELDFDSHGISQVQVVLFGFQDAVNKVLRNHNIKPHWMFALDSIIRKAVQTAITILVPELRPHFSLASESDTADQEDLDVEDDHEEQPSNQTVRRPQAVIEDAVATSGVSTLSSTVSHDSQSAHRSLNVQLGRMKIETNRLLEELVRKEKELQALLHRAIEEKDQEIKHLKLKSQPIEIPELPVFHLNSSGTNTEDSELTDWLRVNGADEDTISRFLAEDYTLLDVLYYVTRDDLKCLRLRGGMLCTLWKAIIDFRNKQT

[2] = target: T1, Mitogen-activated protein kinase kinase kinase 5; assay: Inhibition of ASK1 by luciferase assay
[3] = target: T1, Mitogen-activated protein kinase kinase kinase 5; assay: Binding affinity to ASK1

Row | Structure (SMILES) | IC50 [1] [µM] | IC50 [2] [µM] | Kd [3] [µM]
1 | Cn1cc(/C=C2\C(=O)Nc3ccccc32)c2ccccc21 | > 100 | 82.7 | –
2 | NC1=NC(=O)/C(=C2\CCNC(=O)c3[nH]c(Br)cc32)N1 [HYMENIALDISINE] | 7 | 0.15 | –
3 | CO[C@@H]1[C@H](N(C)C(=O)COCCOCCNC(=O)c2ccc(-c3c4ccc(=[N+](C)C)cc-4oc4cc(N(C)C)ccc34)c(C(=O)O)c2)C[C@H]2O[C@]1(C)n1c3ccccc3c3c4c(c5c6ccccc6n2c5c31)C(=O)NC4 | – | – | 8
